Holding throughout (type): biochemical
For one test, the target named is PDE1C (Homo sapiens (Human), UniProt Q14123). Put plainly: PDE1 inhibition assay, PDE1C. The conditions noted are these: for inhibition at 10 µM: @ 10 μM compound, read-out: PDE1 C, % inhibition @ 10 μM; for IC50: 15 nM tritium labelled cAMP, 1 hr at room temperature, SPA beads, read-out: PDE1 C, IC50. In outline: (§1)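 Scintillation proximity read-out (yttrium silicate beads, 1 h settling) quantified hydrolysis of 15 nM tritiated cAMP after a 1 h room-temperature reaction. The buffer was HEPES pH 7.6 with MgCl2, Tween20 and BSA, and enzyme was set to convert 20–25% of substrate. Activity was normalized to the uninhibited control (100%) to derive IC50.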
Chain of PDE1C (Q14123 whole entry): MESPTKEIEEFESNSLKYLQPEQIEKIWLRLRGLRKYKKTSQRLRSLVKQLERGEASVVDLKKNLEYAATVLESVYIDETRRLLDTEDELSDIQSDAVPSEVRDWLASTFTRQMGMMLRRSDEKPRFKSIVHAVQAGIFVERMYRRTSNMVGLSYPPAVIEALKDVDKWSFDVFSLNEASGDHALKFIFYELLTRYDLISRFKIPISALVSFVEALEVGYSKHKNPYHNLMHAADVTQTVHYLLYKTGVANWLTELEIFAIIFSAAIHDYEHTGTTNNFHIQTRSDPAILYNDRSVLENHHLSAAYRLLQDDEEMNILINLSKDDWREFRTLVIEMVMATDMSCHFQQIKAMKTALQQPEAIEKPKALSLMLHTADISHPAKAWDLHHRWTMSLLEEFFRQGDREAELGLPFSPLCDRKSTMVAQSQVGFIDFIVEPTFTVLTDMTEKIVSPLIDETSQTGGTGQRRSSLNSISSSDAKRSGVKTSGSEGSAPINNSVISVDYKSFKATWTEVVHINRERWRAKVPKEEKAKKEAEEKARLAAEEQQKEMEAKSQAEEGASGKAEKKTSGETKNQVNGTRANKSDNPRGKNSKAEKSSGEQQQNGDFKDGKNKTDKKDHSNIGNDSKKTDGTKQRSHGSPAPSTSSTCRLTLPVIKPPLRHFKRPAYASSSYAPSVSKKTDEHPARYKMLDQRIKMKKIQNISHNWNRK

The target in the next test is PDE1B (Homo sapiens (Human), UniProt Q01064). Briefly: PDE1 inhibition assay, PDE1B. Conditions: for IC50: 15 nM tritium labelled cAMP, 1 hr at room temperature, SPA beads, read-out: PDE1 B, IC50. In outline: as §1
Chain of PDE1B (Q01064 whole entry): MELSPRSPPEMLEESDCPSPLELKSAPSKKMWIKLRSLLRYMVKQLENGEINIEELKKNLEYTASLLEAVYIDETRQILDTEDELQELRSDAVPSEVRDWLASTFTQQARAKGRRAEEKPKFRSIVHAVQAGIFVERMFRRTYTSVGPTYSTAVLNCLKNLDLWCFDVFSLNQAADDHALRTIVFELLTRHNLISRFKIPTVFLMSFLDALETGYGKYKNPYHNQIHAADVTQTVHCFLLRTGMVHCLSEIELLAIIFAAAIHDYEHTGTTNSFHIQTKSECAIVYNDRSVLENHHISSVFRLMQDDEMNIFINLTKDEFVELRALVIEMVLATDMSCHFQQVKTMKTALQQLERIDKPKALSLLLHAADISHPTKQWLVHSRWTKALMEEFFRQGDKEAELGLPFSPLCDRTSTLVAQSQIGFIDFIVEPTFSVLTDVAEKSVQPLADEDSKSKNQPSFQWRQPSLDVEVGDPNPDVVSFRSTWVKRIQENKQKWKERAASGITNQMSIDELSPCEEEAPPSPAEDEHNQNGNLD
For the next test, the target named is PDE1A (Homo sapiens (Human), UniProt P54750). Briefly: PDE1 inhibition assay, PDE1A. Conditions: for inhibition at 10 µM: @ 10 μM compound; for IC50: 15 nM tritium labelled cAMP, 1 hr at room temperature, SPA beads. In outline:
as §1

SMILES strings stand for the structures.

Chain of PDE1A (P54750 whole entry): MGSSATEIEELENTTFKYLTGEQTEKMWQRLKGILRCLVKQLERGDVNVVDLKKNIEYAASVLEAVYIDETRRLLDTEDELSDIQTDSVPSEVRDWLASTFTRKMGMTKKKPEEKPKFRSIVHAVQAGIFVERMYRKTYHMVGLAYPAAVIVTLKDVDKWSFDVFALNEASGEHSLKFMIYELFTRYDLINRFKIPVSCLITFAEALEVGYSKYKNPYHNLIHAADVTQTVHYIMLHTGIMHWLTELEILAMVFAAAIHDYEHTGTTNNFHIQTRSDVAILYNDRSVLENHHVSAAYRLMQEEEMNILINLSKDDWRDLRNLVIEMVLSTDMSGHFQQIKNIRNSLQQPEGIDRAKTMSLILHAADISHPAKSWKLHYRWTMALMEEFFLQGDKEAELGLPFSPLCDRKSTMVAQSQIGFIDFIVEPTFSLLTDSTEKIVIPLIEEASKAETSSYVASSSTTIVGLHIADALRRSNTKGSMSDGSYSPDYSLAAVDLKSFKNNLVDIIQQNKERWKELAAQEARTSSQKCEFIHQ

As to `CCc1ncccc1-c1cc(N[C@@H]2CCOC2)c2c(cnn2C(C)C)n1` [Example 56, 5-(2-ethyl-3-pyridyl)-1-isopropyl-N-[(3R)-tetrahydrofuran-3-yl]pyrazolo[4,3-b]pyridin-7-amine], the inhibition (usually the change of the read-out against control, counted positive when it falls) at 10 µM was 59% on PDE1C and 51% at PDE1A. Moreover, the IC50 – broadly, the concentration at which inhibition is half-maximal – at PDE1B worked out at 1520 nM.

Consider `CC(C)n1ncc2nc(-c3cccnc3)cc(N[C@@H]3CCOC3)c21` [Example 25, 1-isopropyl-5-(3-pyridyl)-N-[(3R)-tetrahydrofuran-3-yl]pyrazolo[4,3-b]pyridin-7-amine], for which the inhibition at 10 µM on PDE1C turned out to be 65%. Also, the IC50 is 648 nM on PDE1B and 2160 nM against PDE1A.

As to `CC(C)n1ncc2nc(-c3cncc(C#N)c3)cc(N[C@@H]3CCOC3)c21` [Example 44, 5-[1-isopropyl-7-[[(3R)-tetrahydrofuran-3-yl]amino]pyrazolo[4,3-b]pyridin-5-yl]pyridine-3-carbonitrile], the results for the inhibition at 10 µM on PDE1C and against PDE1A were 47% and 33%, respectively. Moreover, the IC50 at PDE1B stood at 4010 nM.

With `CCOc1ncccc1-c1cc(NC2CCOCC2)c2c(cnn2C(C)C)n1` [Example 10, 5-(2-ethoxy-3-pyridyl)-1-isopropyl-N-tetrahydropyran-4-yl-pyrazolo[4,3-b]pyridin-7-amine], the IC50 at PDE1C was 2660 nM; on PDE1B it was 126 nM. On PDE1A, this molecule came in with an inhibition at 10 µM of 71%.

For the molecule `CCOc1ncccc1-c1ccn2c(C3CCCC3)nc(C)c2n1` [Example 80, 6-cyclopentyl-2-(2-ethoxy-3-pyridyl)-8-methyl-imidazo[1,5-a]pyrimidine], the IC50 amounted to 2280 nM on PDE1C, 591 nM at PDE1B and 3230 nM against PDE1A.

As to `CCOc1ncccc1-c1cc(NC[C@H]2CCCO2)c2c(cnn2C(C)C)n1` [Example 7, 5-(2-ethoxy-3-pyridyl)-1-isopropyl-N-[[(2R)-tetrahydrofuran-2-yl]methyl]pyrazolo[4,3-b]pyridin-7-amine], the half-inhibitory concentration (IC50) was 1710 nM at PDE1C, 83 nM at PDE1B and 449 nM on PDE1A.

Take `COc1cccc(Cc2cc(N[C@@H]3CCOC3)c3c(cnn3C(C)C)n2)c1` [Example 37, 1-isopropyl-5-[(3-methoxyphenyl)methyl]-N-[(3R)-tetrahydrofuran-3-yl]pyrazolo[4,3-b]pyridin-7-amine]: the IC50 at PDE1C amounted to 1680 nM; on PDE1B, 1340 nM. The molecule further had an inhibition at 10 µM at PDE1A of 60%.

Consider `CCOc1ncccc1-c1cc(NC(C)C)c2c(cnn2C(C)C)n1` [Example 12, 5-(2-ethoxy-3-pyridyl)-N,1-diisopropyl-pyrazolo[4,3-b]pyridin-7-amine], for which the IC50 worked out at 2230 nM on PDE1C, 108 nM at PDE1B and 1120 nM against PDE1A.

As for `CC(C)n1ncc2nc(-c3cccc4c3OCO4)cc(N[C@@H]3CCOC3)c21` [Example 32, 5-(1,3-benzodioxol-4-yl)-1-isopropyl-N-[(3R)-tetrahydrofuran-3-yl]pyrazolo[4,3-b]pyridin-7-amine], the values for the IC50 at PDE1C, at PDE1B and at PDE1A were 1200 nM, 284 nM and 1290 nM, respectively.

On to `CCOc1ncccc1-c1ccn2c(C(C)(C)C)nc(C)c2n1` [Example 82, 6-tert-butyl-2-(2-ethoxy-3-pyridyl)-8-methyl-imidazo[1,5-a]pyrimidine], for which the inhibition at 10 µM turned out to be 28% on PDE1C; 54% on PDE1B (@ 10 μM compound, read-out: PDE1 B, % inhibition @ 10 μM); 29% on PDE1A.

Turning to `COc1ncc(C#N)cc1-c1cc(N[C@@H]2CCOC2)c2c(cnn2C(C)C)n1` [Example 54, 5-[1-isopropyl-7-[[(3R)-tetrahydrofuran-3-yl]amino]pyrazolo[4,3-b]pyridin-5-yl]-6-methoxy-pyridine-3-carbonitrile], the IC50 came to 2400 nM on PDE1C and 1530 nM on PDE1B. The molecule further displayed an inhibition at 10 µM at PDE1A of 59%.

Regarding `CCOc1ncccc1-c1ccc2c(cnn2C(C)C)n1` [Example 70, 5-(2-ethoxy-3-pyridyl)-1-isopropyl-pyrazolo[4,3-b]pyridine], the IC50 on PDE1C stood at 2170 nM; on PDE1B, 99 nM; at PDE1A, 836 nM.

On to `COc1ncncc1-c1cc(N[C@@H]2CCOC2)c2c(cnn2C(C)C)n1` [Example 49, 1-isopropyl-5-(4-methoxypyrimidin-5-yl)-N-[(3R)-tetrahydrofuran-3-yl]pyrazolo[4,3-b]pyridin-7-amine], for which the results for the IC50 on PDE1C and at PDE1B were 1870 nM and 2670 nM, respectively. The molecule also came in with an inhibition at 10 µM against PDE1A of 43%.

Source of the values: patent US11535611B2, “Pyrazolo[3,4-B]pyridines and imidazo[1,5-B]pyridazines as PDE1 inhibitors” (H. Lundbeck A/S, priority 2017, dated 2022).
